The target in this test is T1, MerTK (Homo sapiens, UniProt Q12866).
T1 construct: endogenous in cells; host or cells: Jurkat cells
T1 sequence (Q12866 21-999): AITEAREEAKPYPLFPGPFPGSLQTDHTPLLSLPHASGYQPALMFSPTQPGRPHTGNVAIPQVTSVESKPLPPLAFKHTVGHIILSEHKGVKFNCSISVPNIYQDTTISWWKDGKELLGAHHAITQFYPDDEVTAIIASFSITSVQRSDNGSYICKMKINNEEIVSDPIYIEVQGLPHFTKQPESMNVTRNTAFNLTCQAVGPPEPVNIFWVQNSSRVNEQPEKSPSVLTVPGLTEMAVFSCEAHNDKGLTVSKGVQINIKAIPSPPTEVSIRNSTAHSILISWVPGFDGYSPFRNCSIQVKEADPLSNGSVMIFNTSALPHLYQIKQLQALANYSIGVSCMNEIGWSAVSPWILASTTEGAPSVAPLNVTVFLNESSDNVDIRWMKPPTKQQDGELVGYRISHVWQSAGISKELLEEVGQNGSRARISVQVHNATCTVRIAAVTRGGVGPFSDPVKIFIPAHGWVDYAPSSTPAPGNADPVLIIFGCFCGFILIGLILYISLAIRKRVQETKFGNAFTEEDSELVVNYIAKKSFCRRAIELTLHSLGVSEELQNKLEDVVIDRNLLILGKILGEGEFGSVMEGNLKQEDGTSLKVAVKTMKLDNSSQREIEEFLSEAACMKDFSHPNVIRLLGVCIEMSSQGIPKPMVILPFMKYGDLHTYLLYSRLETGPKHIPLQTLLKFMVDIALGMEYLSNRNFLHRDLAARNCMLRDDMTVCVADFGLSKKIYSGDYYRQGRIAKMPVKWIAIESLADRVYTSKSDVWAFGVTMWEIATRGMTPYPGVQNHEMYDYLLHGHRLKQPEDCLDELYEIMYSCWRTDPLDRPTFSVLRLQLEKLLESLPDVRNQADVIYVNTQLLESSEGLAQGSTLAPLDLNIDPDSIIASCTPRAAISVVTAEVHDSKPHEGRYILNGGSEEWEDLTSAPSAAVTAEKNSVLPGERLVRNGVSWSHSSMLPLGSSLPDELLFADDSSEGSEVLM
The test can be described thus: MerTk degradation in Jurkat cells (Western blot). Type of test: cell-based. The note with it: 0.001-1 μM, 4 hour-incubation at 37° C., read-out: Jurkat Max % MerTK Degradation. In outline: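 Jurkat cells treated 4 h at 37 °C with compound at 0.001-1 μM final. RIPA lysates quantified by BCA, then MerTK probed by Western blot against actin loading control with IR-dye secondaries and Odyssey imaging.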
For orientation: A western blot detects proteins with antibodies after separation by electrophoresis.

The results in this text go back to patent US20260042762A1 (Kymera Therapeutics, Inc., priority 2018, published 2026).

Molecules are shown by their SMILES. Like-named read-outs stand apart in the source and are kept apart here.

Turning to `C[C@H](CC(F)(F)F)Nc1ncc2c(-c3ccc(CN4CCN(CCCOC5CN(Cc6ccc7c(c6)n(C)c(=O)n7C6CCC(=O)NC6=O)C5)CC4)cc3)cn([C@H]3CC[C@H](O)CC3)c2n1` (stereo partly drawn) [I-200, trans-3-(3-methyl-2-oxo-5-[[3-(3-[4-[(4-[7-[4-hydroxycyclohexyl]-2-[[(2R)-4,4,4-trifluorobutan-2-yl]amino]pyrrolo[2,3-d]pyrimidin-5-yl]phenyl)methyl]piperazin-1-yl]propoxy)azetidin-1-y1]methyl]-1,3-benzodiazol-1-y1)piperidine-2,6-dione; tris(formic acid)], the Dmax (Jurkat, 4 h) is > 50%. For the compound `C[C@@H](CC(F)(F)F)Nc1ncc2c(-c3ccc(CN4CCN(CCCOC5CCN(Cc6ccc7c(c6)n(C)c(=O)n7C6CCC(=O)NC6=O)CC5)CC4)cc3)cn([C@H]3CC[C@H](O)CC3)c2n1` (stereo partly drawn) [I-197, 3-(3-methyl-2-oxo-5-[[4-(3-[4-[(4-[7-[trans-4-hydroxycyclohexyl]-2-[[(2S)-4,4,4-trifluorobutan-2-yl]amino]pyrrolo[2,3-d]pyrimidin-5-yl]phenyl)methyl]piperazin-1-yl]propoxy)piperidin-1-yl]methyl]-1,3-benzodiazol-1-y1)piperidine-2,6-dione], the Dmax (Jurkat, 4 h) was > 50%. On the same count and under the same terms, to `CCC[C@H](C)Nc1ncc2c(n1)n([C@H]1CC[C@H](O)CC1)cc2[C@H]1CC[C@@H](CN2CCN(C3CC(OCCc4ccc5c(c4)n(C)c(=O)n5C4CCC(=O)NC4=O)C3)CC2)CC1` (stereo partly drawn) [I-206, 3-(3-methyl-2-oxo-5-[2-[3-(4-[cis-4-[2-[(2S)-pentan-2-ylamino]-7-[trans-4-hydroxycyclohexyl]pyrrolo[2,3-d]pyrimidin-5-yl]cyclohexyl]methyl]piperazin-1-yl)cyclobutoxylethyl]-1,3-benzodiazol-1-y1)piperidine-2,6-dione] belongs > 50%. Still for that read-out and setting: to `C[C@@H](CC(F)(F)F)Nc1ncc2c(-c3ccc(CN4CCN(CCCO[C@H]5CCN(Cc6ccc7c(c6)n(C)c(=O)n7C6CCC(=O)NC6=O)C5)CC4)cc3)cn([C@H]3CC[C@H](O)CC3)c2n1` (stereo partly drawn) [I-199, 3-(3-methyl-2-oxo-5-[[(3S)-3-(3-[4-[(4-[7-[trans-4-hydroxycyclohexy1]-2-[[(2S)-4,4,4-trifluorobutan-2-yl]amino]pyrrolo[2,3-d]pyrimidin-5-yl]phenyl)methyl]piperazin-1-yl]propoxy)pyrrolidin-1-yl]methyl]-1,3-benzodiazol-1-yl)piperidine-2,6-dione] belongs 20 to 50%; to `CN1CCN(Cc2ccc(-c3ccc(CO[C@H]4CCC[C@@H]4NC(=O)c4cc(-c5cnn(CCOCCCc6ccc7c(c6)n(C)c(=O)n7C6CCC(=O)NC6=O)c5)cnc4N)cc3)cc2)CC1` (stereo partly drawn) [I-217, 2-Amino-5-[1-(2-[3-[1-(2,6-dioxopiperidin-3-yl)-3-methyl-2-oxo-1,3-benzodiazol-5-yl]propoxy]ethyl)pyrazol-4-yl]-N-[(1S,2S)-2-([4-[(4-methylpiperazin-1-yl)methyl]-[1,1-biphenyl]-4-yl]methoxy)cyclopentyl]pyridine-3-carboxamide], 20 to 50%; to `Cn1c(=O)n([C@H]2CCC(=O)NC2=O)c2ccc(CCCOCCCN3CCN(Cc4ccc(-c5cn([C@H]6CC[C@H](O)CC6)c6nc(NC7CC7)ncc56)cc4)CC3)cc21` [I-108, 3-[5-(3-[3-[4-([4-[2-(cyclopropylamino)-7-[trans-4-hydroxycyclohexyl]-7H-pyrrolo[2,3-d]pyrimidin-5-yl]phenyl]methyl)piperazin-1-yl]propoxy]propyl)-3-methyl-2-oxo-2,3-dihydro-1H-1,3-benzodiazol-1-yl]piperidine-2,6-dione; bis(formic acid)], > 50%. For `Cn1c(=O)n([C@H]2CCC(=O)NC2=O)c2ccc(CCCOCCOC3CCN(C[C@H]4CC[C@H](c5cn([C@H]6CC[C@H](O)CC6)c6nc(NCCC(F)(F)F)ncc65)CC4)CC3)cc21` [I-163], the Dmax (Jurkat, 4 h) is > 50%.

`Cn1c(=O)n([C@H]2CCC(=O)NC2=O)c2ccc(COC3CCN(C4CCN(Cc5ccc(-c6cn([C@H]7CC[C@H](O)CC7)c7nc(NCCC(F)(F)F)ncc67)cc5)CC4)CC3)cc21` [I-157, 3-[3-methyl-2-oxo-5-[([1-[(4-[7-[trans-4-hydroxycyclohexy1]-2-[(3,3,3-trifluoropropyl)amino]pyrrolo[2,3-d]pyrimidin-5-yl]phenyl)methyl]-[1,4-bipiperidin]-4-yl]oxy)methyl]-1,3-benzodiazol-1-y1]piperidine-2,6-dione; formic acid]: the Dmax (Jurkat, 4 h) was > 50%. On the same count and under the same terms, next, `Cn1c(=O)n([C@H]2CCC(=O)NC2=O)c2ccc(CCCOCCCN3CCN(Cc4ccc(-c5cn([C@H]6CC[C@](C)(O)CC6)c6nc(NCCC(F)(F)F)ncc56)cc4)CC3)cc21` [I-142, 3-[3-methyl-2-oxo-5-[3-(3-[4-[(4-[7-[trans-4-hydroxy-4-methylcyclohexyl]-2-[(3,3,3-trifluoropropyl)amino]pyrrolo[2,3-d]pyrimidin-5-yl]phenyl)methyl]piperazin-1-yl]propoxy)propyl]-1,3-benzodiazol-1-yl]piperidine-2,6-dione]: > 50%; `Cc1ncsc1-c1ccc(CNC(=O)[C@@H]2C[C@@H](O)CN2C(=O)[C@@H](NC(=O)C2(F)CC2)C(C)(C)C)c(OCCOCCN2CCN(Cc3ccc(-c4cn([C@H]5CC[C@H](O)CC5)c5nc(NCCC(F)(F)F)ncc45)cc3)CC2)c1` [I-174]: 20 to 50%. For `CCCCNc1ncc(-c2ccc(CN3CCN(C(=O)COCCOCCOCCOCCNc4cccc5c4C(=O)N(C4CCC(=O)NC4=O)C5=O)CC3)cn2)c(N[C@H]2CC[C@H](O)CC2)n1` (stereo partly drawn) [I-22, 4-[15-[4-([6-[2-(Butylamino)-4-[[trans-4-hydroxycyclohexyl]amino]pyrimidin-5-yl]pyridin-3-yl]methyl)piperazin-1-yl]-15-oxo-4,7,10,13-tetraoxa-1-azapentadecan-1-yl]-2-(2,6-dioxopiperidin-3-yl)-2,3-dihydro-1H-isoindole-1,3-dione], the Dmax (Jurkat, 4 h) was > 50%. On the same count and under the same terms, to `CCCCNc1ncc2c(-c3ccc(S(=O)(=O)N4CCN(CCOCCOCCOCCOCCNc5cccc6c5n(C)c(=O)n6C5CCC(=O)NC5=O)CC4)cc3)cn([C@H]3CC[C@H](O)CC3)c2n1` (relative stereo) [I-35, Trans-3-[4-[15-(4-[4-[2-(butylamino)-7-[-4-hydroxycyclohexyl]-7H-pyrrolo[2,3-d]pyrimidin-5-yl]benzenesulfonyl]piperazin-1-yl)-4,7,10,13-tetraoxa-1-azapentadecan-1-yl]-3-methyl-2-oxo-2,3-dihydro-1H-1,3-benzodiazol-1-yl]piperidine-2,6-dione] belongs > 50%. Regarding `CN1CCN(Cc2ccc(-c3ccc(CO[C@H]4CCC[C@@H]4NC(=O)c4cc(-c5cnn(CCCCC(=O)NCCCOCCCc6ccc7c(c6)n(C)c(=O)n7C6CCC(=O)NC6=O)c5)cnc4N)cc3)cc2)CC1` (some centres unmarked) [I-39, formic acid], the Dmax is > 50%. In the case of `Cc1ncsc1-c1ccc(CNC(=O)[C@@H]2C[C@@H](O)CN2C(=O)[C@@H](NC(=O)CCCCCCN2CCN(Cc3ccc(-c4cn([C@H]5CC[C@H](O)CC5)c5nc(NCCC(F)(F)F)ncc45)cc3)CC2)C(C)(C)C)cc1` [I-162, (2S,4R)-1-[(2S)-3,3-dimethyl-2-(7-[4-[(4-[7-[trans-4-hydroxycyclohexyl]-2-[(3,3,3-trifluoropropyl)amino]pyrrolo[2,3-d]pyrimidin-5-yl]phenyl)methyl]piperazin-1-yl]heptanamido)butanoyl]-4-hydroxy-N-[[4-(4-methyl-1,3-thiazol-5-yl)phenyl]methyl]pyrrolidine-2-carboxamide], under “Jurkat, 4 h”, the Dmax is < 20%.
